Where “and” joins values, the source holds several entries; their conditions need not be identical. Equal entries are not always repeated.
Legend:
[1] = Titration of the sodium salt with HCl in aqueous solution
Description: Typically new structures that may be suitable as advanced pH-switch components are first assessed for their pKa value in normal saline. This entails preparing the sodium salt form of the structure and dissolving it at a concentration of 20 milliMolar in 15 ml of 0.15 Molar NaCl (deareated to remove CO2). […] A plot of pH versus volume of added HCl affords the effective pKa value. It is also desirable to carry out this same titration in methanol/water (1:1 by vol) in order to get an estimate of the pKa value independent of insolubility effects.

[2] = urine rendered basic; cited from earlier work
[3] = system: acidic areas of tumors; details: without corresponding reduction of pH in normal tissues; cited from earlier work
[4] = system: tumors; details: tumor-bearing mice; reduction of about 0.3 pH units in the tumors; cited from earlier work

Compound: CCC[N+]1([O-])CCC(C(=O)O)CC1 (stereo not drawn) [structure iii in FIG. 16b, N-oxide of N-propylisonipocotic acid]
- minimum of the first derivative of the titration curve (pH) ([1]; sodium salt titrated in aqueous solution): ~4.0 and ~5.6

Compound: CC(=O)Nc1nnc(S(N)(=O)=O)s1 [Acetazolamide]
- pH of the urine [2]: ≥ 7.4

Compound: N=C(N)NCc1cccc([131I])c1 [meta-iodobenzylguanidine, reference compound]
- reduction of the pH in acidic areas of tumors [3]: further reduced

Compound: glucose and meta-iodobenzylguanidine
- reduction of the pH in acidic areas of tumors [3]: ≤ 0.7 pH unit

Compound: O=C(O)CCCc1ccc(N(CCCl)CCCl)cc1 [Chlorambucil]
- improvement in tumor growth delay [4]: 1.7 fold

Compound: CN(C)C(=O)C=CC(=O)O [FIG. 14b]
- mid-point of the transition between salt and acid (pKa value) ([1]; sodium salt titrated with HCl in aqueous solution): below 3.0
